Results as given in ChEMBL document CHEMBL1201862, “PubChem BioAssay data set” (2004).
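Assay format: 96-well plates, 48-hour exposure. Abbreviation: GI50, concentration required for 50% inhibition of growth.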 The source made the active and inactive calls. Rule as the data show it: active = GI50 up to about 1.1 µM and inactive = higher.

Key:
Test in all cases: NCI anticancer screen, dose series, 48 h
[1] = test system: SK-MEL-2
[2] = test system: KM-20L2
[3] = test system: SN12C
[4] = test system: SNB-19
[5] = test system: NCI-H226
[6] = test system: SNB-75
[7] = test system: EKVX
[8] = test system: OVCAR-3
[9] = test system: HCC 2998
[10] = test system: SK-OV-3
[11] = test system: A549
[12] = test system: SK-MEL-28
[13] = test system: TK-10
[14] = test system: XF498
[15] = test system: SK-MEL-5
[16] = test system: NCI-H23
[17] = test system: HCT-116
[18] = test system: OVCAR-5
[19] = test system: SF-295
[20] = test system: CAKI-1
[21] = test system: DMS-114
[22] = test system: NCI-H460
[23] = test system: RXF 393
[24] = test system: UO-31
[25] = test system: SF-539
[26] = test system: KM12
[27] = test system: U-251
[28] = test system: DLD-1
[29] = test system: LOX IMVI
[30] = test system: HT-29
[31] = test system: COLO 205
[32] = test system: HCT-15
[33] = test system: RXF 631
[34] = test system: Malme-3M
[35] = test system: M14
[36] = test system: OVCAR-4
[37] = test system: UACC-257
[38] = test system: SW-620
[39] = test system: UACC-62
[40] = test system: SR
[41] = test system: M19-MEL
[42] = test system: DMS-273
[43] = test system: IGROV-1
[44] = test system: OVCAR-8
[45] = test system: K562
[46] = test system: ACHN
[47] = test system: NCI-H522
[48] = test system: A498
[49] = test system: HOP-62
[50] = test system: SF-268
[51] = test system: MOLT-4
[52] = test system: SNB-78
[53] = test system: RPMI-8226
[54] = test system: CCRF-CEM
[55] = test system: LXFL 529
[56] = test system: HOP-92
[57] = test system: 786-0
[58] = test system: HL-60

## CCN(CC)CCO[Si](OCCN(CC)CC)(OCCN(CC)CC)OCCN(CC)CC
[1]
  GI50: > 100 µM (inactive)
[2]
  GI50: > 100 µM (inactive)
[3]
  GI50: > 100 µM (inactive)
[4]
  GI50: > 100 µM (inactive)
[5]
  GI50: 88.5 µM (inactive)
[6]
  GI50: > 100 µM (inactive)
[7]
  GI50: > 100 µM (inactive)
[8]
  GI50: > 100 µM (inactive)
[9]
  GI50: > 100 µM (inactive)
[10]
  GI50: > 100 µM (inactive)
[11]
  GI50: > 100 µM (inactive)
[12]
  GI50: > 100 µM (inactive)
[13]
  GI50: > 100 µM (inactive)
[14]
  GI50: > 100 µM (inactive)
[15]
  GI50: > 100 µM (inactive)
[16]
  GI50: > 100 µM (inactive)
[17]
  GI50: > 10 µM (inactive)
[18]
  GI50: > 100 µM (inactive)
[19]
  GI50: > 100 µM (inactive)
[20]
  GI50: > 100 µM (inactive)
[21]
  GI50: > 100 µM (inactive)
[22]
  GI50: > 100 µM (inactive)
[23]
  GI50: > 100 µM (inactive)
[24]
  GI50: > 100 µM (inactive)
[25]
  GI50: > 100 µM (inactive)
[26]
  GI50: > 100 µM (inactive)
[27]
  GI50: > 100 µM (inactive)
[28]
  GI50: > 100 µM (inactive)
[29]
  GI50: > 100 µM (inactive)
[30]
  GI50: > 100 µM (inactive)
[31]
  GI50: > 100 µM (inactive)
[32]
  GI50: > 100 µM
[33]
  GI50: > 100 µM (inactive)
[34]
  GI50: > 100 µM (inactive)
[35]
  GI50: > 100 µM (inactive)
[36]
  GI50: > 100 µM (inactive)
[37]
  GI50: > 100 µM (inactive)
[38]
  GI50: > 100 µM (inactive)
[39]
  GI50: > 100 µM (inactive)
[40]
  GI50: > 100 µM (inactive)
[41]
  GI50: > 100 µM (inactive)
[42]
  GI50: > 100 µM (inactive)
[43]
  GI50: > 100 µM (inactive)
[44]
  GI50: > 100 µM (inactive)

## O=C(O)c1c([N+](=O)[O-])cc(C(F)(F)F)cc1[N+](=O)[O-]
[1]
  GI50: > 100 µM (inactive)
[2]
  GI50: > 100 µM (inactive)
[3]
  GI50: > 100 µM (inactive)
[4]
  GI50: > 100 µM (inactive)
[5]
  GI50: > 100 µM (inactive)
[45]
  GI50: > 100 µM (inactive)
[46]
  GI50: > 100 µM (inactive)
[47]
  GI50: > 100 µM (inactive)
[7]
  GI50: > 100 µM (inactive)
[8]
  GI50: > 100 µM (inactive)
[48]
  GI50: > 100 µM (inactive)
[49]
  GI50: > 100 µM (inactive)
[11]
  GI50: > 100 µM (inactive)
[12]
  GI50: > 100 µM (inactive)
[13]
  GI50: > 100 µM (inactive)
[50]
  GI50: > 100 µM (inactive)
[14]
  GI50: 35.2 µM (inactive)
[15]
  GI50: > 100 µM (inactive)
[16]
  GI50: > 100 µM (inactive)
[17]
  GI50: > 100 µM (inactive)
[51]
  GI50: > 100 µM (inactive)
[18]
  GI50: > 100 µM (inactive)
[19]
  GI50: > 100 µM (inactive)
[20]
  GI50: > 100 µM (inactive)
[22]
  GI50: > 100 µM (inactive)
[23]
  GI50: > 100 µM (inactive)
[24]
  GI50: > 100 µM (inactive)
[25]
  GI50: > 100 µM (inactive)
[26]
  GI50: > 100 µM (inactive)
[27]
  GI50: > 100 µM (inactive)
[52]
  GI50: > 100 µM (inactive)
[29]
  GI50: > 100 µM (inactive)
[53]
  GI50: > 100 µM (inactive)
[30]
  GI50: > 100 µM (inactive)
[54]
  GI50: > 100 µM (inactive)
[31]
  GI50: > 100 µM (inactive)
[32]
  GI50: > 100 µM
[33]
  GI50: > 100 µM (inactive)
[55]
  GI50: > 100 µM (inactive)
[56]
  GI50: 74.6 µM (inactive)
[35]
  GI50: > 100 µM (inactive)
[36]
  GI50: > 100 µM (inactive)
[37]
  GI50: > 100 µM (inactive)
[38]
  GI50: > 100 µM (inactive)
[57]
  GI50: > 100 µM (inactive)
[40]
  GI50: > 100 µM (inactive)
[41]
  GI50: > 100 µM (inactive)
[42]
  GI50: > 100 µM (inactive)
[43]
  GI50: > 100 µM (inactive)
[44]
  GI50: > 100 µM (inactive)
[58]
  GI50: > 100 µM (inactive)

## O=C1O[C@H](c2ccccc2)[C@@H]2CC3(CCN12)OCCO3
[1]
  GI50: > 100 µM (inactive)
[2]
  GI50: > 100 µM (inactive)
[3]
  GI50: > 100 µM (inactive)
[4]
  GI50: > 100 µM (inactive)
[5]
  GI50: > 100 µM (inactive)
[45]
  GI50: > 100 µM (inactive)
[46]
  GI50: > 100 µM (inactive)
[47]
  GI50: 2.2 µM (inactive)
[7]
  GI50: > 100 µM (inactive)
[8]
  GI50: > 100 µM (inactive)
[48]
  GI50: > 100 µM (inactive)
[49]
  GI50: > 100 µM (inactive)
[11]
  GI50: > 100 µM (inactive)
[12]
  GI50: > 100 µM (inactive)
[13]
  GI50: > 100 µM (inactive)
[50]
  GI50: > 100 µM (inactive)
[14]
  GI50: > 100 µM (inactive)
[15]
  GI50: > 100 µM (inactive)
[16]
  GI50: 68.9 µM (inactive)
[17]
  GI50: > 100 µM (inactive)
[51]
  GI50: > 100 µM (inactive)
[18]
  GI50: > 100 µM (inactive)
[19]
  GI50: > 100 µM (inactive)
[20]
  GI50: > 100 µM (inactive)
[22]
  GI50: > 100 µM (inactive)
[23]
  GI50: > 100 µM (inactive)
[24]
  GI50: > 100 µM (inactive)
[25]
  GI50: > 100 µM (inactive)
[26]
  GI50: > 100 µM (inactive)
[27]
  GI50: > 100 µM (inactive)
[29]
  GI50: > 100 µM (inactive)
[53]
  GI50: > 100 µM (inactive)
[30]
  GI50: > 100 µM (inactive)
[54]
  GI50: > 100 µM (inactive)
[31]
  GI50: > 100 µM (inactive)
[32]
  GI50: > 100 µM
[33]
  GI50: > 100 µM (inactive)
[55]
  GI50: > 100 µM (inactive)
[56]
  GI50: 69.2 µM (inactive)
[35]
  GI50: > 100 µM (inactive)
[36]
  GI50: > 100 µM (inactive)
[37]
  GI50: > 100 µM (inactive)
[38]
  GI50: > 100 µM (inactive)
[39]
  GI50: > 100 µM (inactive)
[57]
  GI50: > 100 µM (inactive)
[40]
  GI50: > 100 µM (inactive)
[42]
  GI50: > 100 µM (inactive)
[43]
  GI50: > 100 µM (inactive)
[44]
  GI50: > 100 µM (inactive)
[58]
  GI50: > 100 µM (inactive)
